Measurements reported in ChEMBL document CHEMBL3885861, “Open TG-GATES”.

Organism: Rattus norvegicus
Assay: Open TG-GATES - Regimen: Single
Format: toxicity, organism-based, Sprague-Dawley
Set-up: regimen Single, gender Male, age 6 weeks
Conditions: in vivo, po, route gavage; for TC / TG / TP / gamma-GTP / ALT / AST / CRE / Ca / DBIL / GLC / K / LDH / Na / PL / RALB / TBIL / Cl / ALP: tissue Plasma; for Bas / Eos / Fbg / Hb / Ht / Lym / MCHC / MCV / Mono / PT / Plat / RBC / WBC / APTT: tissue Blood; for KIDNEY_L / KIDNEY_R / KIDNEY_TOTAL: tissue Kidney; for LIVER: tissue Liver
[1] = 240 mg/kg, 3 h, dose level Middle
[2] = 240 mg/kg, 6 h, dose level Middle
[3] = 240 mg/kg, 9 h, dose level Middle
[4] = 240 mg/kg, 24 h, dose level Middle
[5] = 800 mg/kg, 3 h, dose level High
[6] = 800 mg/kg, 6 h, dose level High
[7] = 800 mg/kg, 9 h, dose level High
[8] = 800 mg/kg, 24 h, dose level High

## COc1ccc([C@@H]2Sc3ccccc3N(CCN(C)C)C(=O)[C@@H]2OC(C)=O)cc1 [DILTIAZEM]
80 mg/kg, 24 h, dose level Low
  TC: 78.2 mg/dL
  TG: 67.8 mg/dL
  TP: 5.5 g/dL
  gamma-GTP: 1 IU/L
[1]
  TERMINAL_BW: 186.7 g
  Bas: 0%
  Eos: 0.8%
  Fbg: 284.8 mg/dL
  Hb: 12.6 g/dL
  Ht: 38.9%
  Lym: 75%
  MCHC: 32.3%
  MCV: 65.9 fL
  Mono: 3.2%
  PT: 14.7 s
  Plat: 119.4 x10_4/uL
  RBC: 588.8 x10_4/ul
  WBC: 87.8 x10_2/uL
  KIDNEY_L: 0.9 g
  KIDNEY_R: 0.9 g
  KIDNEY_TOTAL: 1.7 g
  LIVER: 8.4 g
  ALT: 45.2 IU/L
  AST: 84 IU/L
  CRE: 0.2 mg/dL
  Ca: 10.8 mg/dL
  DBIL: 0.012 mg/dL
  GLC: 186.4 mg/dL
  K: 4.4 meq/L
  LDH: 70.4 IU/L
  Na: 142 meq/L
  PL: 136.8 mg/dL
  RALB: 2.5 g/dL
  TBIL: 0.03 mg/dL
  TC: 75 mg/dL
  TG: 58 mg/dL
  TP: 5.2 g/dL
  gamma-GTP: 1 IU/L
[2]
  TERMINAL_BW: 187.5 g
  Bas: 0%
  Eos: 0.8%
  Fbg: 303.8 mg/dL
  Ht: 40.7%
  Lym: 80%
  MCHC: 32%
  MCV: 67.1 fL
  Mono: 3%
  PT: 14.7 s
  Plat: 120.8 x10_4/uL
  RBC: 608.2 x10_4/ul
  WBC: 79.2 x10_2/uL
  KIDNEY_L: 0.9 g
  KIDNEY_R: 0.8 g
  KIDNEY_TOTAL: 1.7 g
  LIVER: 8.1 g
  ALT: 44.8 IU/L
  AST: 73.4 IU/L
  CRE: 0.2 mg/dL
  Ca: 10.9 mg/dL
  Cl: 106.6 meq/L
  DBIL: 0.014 mg/dL
  GLC: 182.8 mg/dL
  K: 4.2 meq/L
  LDH: 54.4 IU/L
  Na: 142.8 meq/L
  PL: 153.6 mg/dL
  RALB: 2.6 g/dL
  TBIL: 0.034 mg/dL
  TC: 86.2 mg/dL
  TG: 47.2 mg/dL
  TP: 5.3 g/dL
  gamma-GTP: 1.2 IU/L
[3]
  TERMINAL_BW: 182 g
  APTT: 17.3 s
  Bas: 0.2%
  Eos: 0.8%
  Fbg: 305.8 mg/dL
  Hb: 12.9 g/dL
  Ht: 40.1%
  Lym: 78.6%
  MCHC: 32.2%
  MCV: 67 fL
  Mono: 2.6%
  PT: 14.8 s
  Plat: 121.1 x10_4/uL
  RBC: 599.4 x10_4/ul
  WBC: 83.9 x10_2/uL
  KIDNEY_L: 0.9 g
  KIDNEY_R: 0.9 g
  KIDNEY_TOTAL: 1.7 g
  LIVER: 7.9 g
  ALT: 41.8 IU/L
  AST: 71.8 IU/L
  CRE: 0.1 mg/dL
  Ca: 10.7 mg/dL
  Cl: 105.6 meq/L
  DBIL: 0.012 mg/dL
  GLC: 171.6 mg/dL
  K: 4.1 meq/L
  LDH: 50.8 IU/L
  Na: 143 meq/L
  PL: 150.4 mg/dL
  RALB: 2.5 g/dL
  TBIL: 0.028 mg/dL
  TC: 82 mg/dL
  TG: 45.8 mg/dL
  TP: 5.2 g/dL
  gamma-GTP: 1 IU/L
[4]
  TERMINAL_BW: 196.9 g
  Bas: 0%
  Eos: 1%
  Fbg: 271.8 mg/dL
  Hb: 13 g/dL
  Ht: 39.6%
  Lym: 75.6%
  MCHC: 32.9%
  MCV: 64.6 fL
  Mono: 2.8%
  PT: 14.8 s
  Plat: 120 x10_4/uL
  RBC: 614.2 x10_4/ul
  WBC: 85.8 x10_2/uL
  KIDNEY_L: 0.9 g
  KIDNEY_R: 0.9 g
  KIDNEY_TOTAL: 1.8 g
  LIVER: 9.5 g
  ALT: 51 IU/L
  AST: 76.2 IU/L
  CRE: 0.2 mg/dL
  Ca: 11.2 mg/dL
  Cl: 106.8 meq/L
  DBIL: 0.018 mg/dL
  GLC: 173.6 mg/dL
  K: 4.2 meq/L
  LDH: 82.4 IU/L
  Na: 144.4 meq/L
  PL: 150.4 mg/dL
  RALB: 2.7 g/dL
  TBIL: 0.022 mg/dL
  TC: 81.2 mg/dL
  TG: 95.8 mg/dL
  TP: 5.5 g/dL
  gamma-GTP: 1.2 IU/L
[5]
  TERMINAL_BW: 189.3 g
  Bas: 0%
  Eos: 0.4%
  Fbg: 277.6 mg/dL
  Hb: 12.7 g/dL
  Ht: 39.2%
  Lym: 69.6%
  MCHC: 32.5%
  MCV: 65.1 fL
  Mono: 4.4%
  PT: 14.6 s
  Plat: 121.1 x10_4/uL
  RBC: 601.6 x10_4/ul
  WBC: 95.2 x10_2/uL
  KIDNEY_L: 0.8 g
  KIDNEY_R: 0.9 g
  KIDNEY_TOTAL: 1.7 g
  LIVER: 8.3 g
  ALT: 52.6 IU/L
  AST: 92 IU/L
  CRE: 0.2 mg/dL
  Ca: 10.7 mg/dL
  Cl: 103.8 meq/L
  DBIL: 0.008 mg/dL
  GLC: 193 mg/dL
  K: 4.4 meq/L
  LDH: 64.4 IU/L
  Na: 140.8 meq/L
  PL: 137.2 mg/dL
  RALB: 2.5 g/dL
  TBIL: 0.028 mg/dL
  TC: 76.8 mg/dL
  TG: 48.4 mg/dL
  TP: 5.2 g/dL
  gamma-GTP: 1 IU/L
[6]
  TERMINAL_BW: 185.7 g
  APTT: 17.5 s
  Bas: 0.4%
  Eos: 0.8%
  Fbg: 311 mg/dL
  Hb: 13.3 g/dL
  Ht: 41.5%
  Lym: 77.6%
  MCHC: 32.1%
  MCV: 66 fL
  Mono: 3.2%
  PT: 14.7 s
  Plat: 126.6 x10_4/uL
  RBC: 629 x10_4/ul
  WBC: 95.6 x10_2/uL
  KIDNEY_L: 0.8 g
  KIDNEY_R: 0.8 g
  KIDNEY_TOTAL: 1.7 g
  LIVER: 7.8 g
  ALT: 45 IU/L
  AST: 74.6 IU/L
  CRE: 0.2 mg/dL
  Ca: 10.7 mg/dL
  DBIL: 0.008 mg/dL
  GLC: 176 mg/dL
  K: 4 meq/L
  LDH: 59.2 IU/L
  Na: 143 meq/L
  PL: 158.8 mg/dL
  RALB: 2.5 g/dL
  TBIL: 0.032 mg/dL
  TC: 91.8 mg/dL
  TG: 40.6 mg/dL
  TP: 5.2 g/dL
  gamma-GTP: 1 IU/L
[7]
  TERMINAL_BW: 185.3 g
  Bas: 0%
  Eos: 0.8%
  Fbg: 316.2 mg/dL
  Hb: 12.6 g/dL
  Ht: 38.6%
  Lym: 74.8%
  MCHC: 32.6%
  MCV: 62.9 fL
  Mono: 2.8%
  PT: 14.7 s
  Plat: 132.9 x10_4/uL
  RBC: 613 x10_4/ul
  WBC: 97 x10_2/uL
  KIDNEY_L: 0.8 g
  KIDNEY_R: 0.8 g
  KIDNEY_TOTAL: 1.6 g
  LIVER: 7.2 g
  ALP: 1763.8 IU/L
  ALT: 48.4 IU/L
  AST: 81.2 IU/L
  CRE: 0.2 mg/dL
  Ca: 10.4 mg/dL
  Cl: 105.8 meq/L
  DBIL: 0.01 mg/dL
  GLC: 170.2 mg/dL
  K: 4.2 meq/L
  LDH: 53.6 IU/L
  Na: 142.4 meq/L
  PL: 144.8 mg/dL
  RALB: 2.6 g/dL
  TBIL: 0.026 mg/dL
  TC: 78.4 mg/dL
  TG: 59 mg/dL
  TP: 5.3 g/dL
  gamma-GTP: 1.2 IU/L
[8]
  TERMINAL_BW: 195.5 g
  Bas: 0%
  Eos: 0.8%
  Fbg: 299 mg/dL
  Ht: 39.9%
  Lym: 76.6%
  MCHC: 33%
  MCV: 64.4 fL
  Mono: 4.4%
  PT: 15 s
  Plat: 125.7 x10_4/uL
  RBC: 621.2 x10_4/ul
  WBC: 83.8 x10_2/uL
  KIDNEY_L: 0.9 g
  KIDNEY_R: 0.9 g
  KIDNEY_TOTAL: 1.7 g
  LIVER: 9.3 g
  ALP: 2052.4 IU/L
  ALT: 41.2 IU/L
  AST: 66.6 IU/L
  CRE: 0.2 mg/dL
  Ca: 11.1 mg/dL
  Cl: 107.6 meq/L
  DBIL: 0.02 mg/dL
  GLC: 168.6 mg/dL
  K: 4.3 meq/L
  LDH: 87.2 IU/L
  Na: 144 meq/L
  PL: 144.8 mg/dL
  RALB: 2.7 g/dL
  TBIL: 0.018 mg/dL
  TC: 77.4 mg/dL
  TG: 108.6 mg/dL
  TP: 5.6 g/dL
  gamma-GTP: 1 IU/L
